Laboratory results: ChEMBL document CHEMBL2321711, “2'-Fluoro-6'-methylene-carbocyclic adenosine phosphoramidate (FMCAP) prodrug: in vitro anti-HBV activity against the lamivudine-entecavir resistant triple mutant and its mechanism of action” (Bioorg Med Chem Lett, 2013)

How the values were obtained:
HepG2 [1] = assay: Mitochondrial toxicity in human HepG2 cells assessed as lactate dehydrogenase release up to 200 uM; type: cell-based
[2] = Cytotoxicity against human HuH7 cells; type: cell-based, Huh-7
Hepatitis B virus [3] = assay: Antiviral activity against wild type Hepatitis B virus infected in human HuH7 cells; type: functional, organism-based; settings: Huh-7
Hepatitis B virus [4] = assay: Antiviral activity against entecavir-resistant Hepatitis B virus harboring L180M/M204V/S202G triple mutant infected in human HuH7 cells; type: functional, organism-based; settings: Huh-7
Hepatitis B virus [5] = assay: Selectivity ratio of EC50 for entecavir-resistant Hepatitis B virus harboring L180M/M204V/S202G triple mutant to EC50 for wild type Hepatitis B virus; type: functional
HepG2 [6] = assay: Mitochondrial toxicity in human HepG2 cells assessed as lactate dehydrogenase release up to 100 uM; type: cell-based

## Cc1cn([C@H]2C[C@H](N=[N+]=[N-])[C@@H](CO)O2)c(=O)[nH]c1=O [ZIDOVUDINE]
HepG2 [1]
  Activity: Toxic

## C=C1[C@@H](n2cnc3c(N)ncnc32)[C@H](F)[C@H](O)[C@H]1COP(=O)(N[C@@H](C)C(=O)OC)Oc1ccccc1 (stereo not given in full)
[2]
  CC50: > 300000 nM
Hepatitis B virus [3]
  EC50: 62 nM
  EC90: 460 nM
Hepatitis B virus [4]
  EC50: 54 nM

## C=C1[C@H](CO)[C@@H](O)C[C@@H]1n1cnc2c(=O)[nH]c(N)nc21.O [ENTECAVIR]
[2]
  CC50: 28000 nM
Hepatitis B virus [5]
  Ratio EC50: 150
Hepatitis B virus [3]
  EC50: 8 nM
  EC90: 33 nM
Hepatitis B virus [4]
  EC50: 1200 nM

## Nc1ccn([C@@H]2CS[C@H](CO)O2)c(=O)n1 [LAMIVUDINE]
[2]
  CC50: > 300000 nM
HepG2 [1]
  Activity: Non-toxic
Hepatitis B virus [3]
  EC50: 56 nM
  EC90: 142 nM
Hepatitis B virus [4]
  EC50: > 500000 nM

## C=C1[C@@H](n2cnc3c(N)ncnc32)[C@H](F)[C@H](O)[C@H]1CO
HepG2 [6]
  Activity: Non-toxic
[2]
  CC50: > 300000 nM
Hepatitis B virus [3]
  EC50: 548 nM
  EC90: 6000 nM
Hepatitis B virus [4]
  EC50: 670 nM
